Each structure is given as a SMILES string.

The target in the assay is BRD4 (Homo sapiens, UniProt O60885). Briefly: Time resolved fluorescence resonance energy transfer (TR-FRET) binding assay, bromodomain BRD4. As to conditions: one of the FRET assays described; read-out: FRET BRD4 IC50. (In general: Time-resolved FRET reads energy transfer from a long-lived donor to a nearby acceptor.)
The term IC50 denotes the concentration needed to halve the response being measured. For `[2H]C([2H])([2H])c1nnn(C)c1-c1cc2c(cn1)c1ncc(C(C)(C)O)cc1n2C(c1ncccc1F)C1CCOCC1` (single isomer, unassigned) [Example 367], the IC50 was below 10 nM. Consider `[2H]C([2H])([2H])c1nnn(C)c1-c1cnc2c3cncc(S(C)(=O)=O)c3n([C@H](c3ccccc3)C3CCOCC3)c2c1` [Example 286, 10-Methanesulfonyl-5-[4-(^2H3)methyl-1-methyl-1H-1,2,3-triazol-5-yl]-8-[(S)-oxan-4-yl(phenyl)methyl]-3,8,12-triazatricyclo[7.4.0.0^2,^7]trideca-1(13),2(7),3,5,9,11-hexaene], for which the half-inhibitory concentration (IC50) was below 10 nM. For `Cc1nnn(C)c1-c1cnc2c3ccc(S(C)(=O)=O)nc3n([C@H](c3ccccc3)C3CCOCC3)c2c1` [Example 145, 5-(Dimethyl-1H-1,2,3-triazol-5-yl)-11-methanesulfonyl-8-[(S)-oxan-4-yl(phenyl)methyl]-3,8,10-triazatricyclo[7.4.0.0^2,^7]trideca-1(13),2(7),3,5,9,11-hexaene], the IC50 was below 10 nM. `Cc1nnn(C)c1-c1cnc2c3ccc(S(=O)(=O)N4CCN(C)CC4)nc3n([C@H](c3ccccc3)C3CCOCC3)c2c1` [Example 198, 5-(Dimethyl-1H-1,2,3-triazol-5-yl)-11-[(4-methylpiperazin-1-yl)sulfonyl]-8-[(S)-oxan-4-yl(phenyl)methyl]-3,8,10-triazatricyclo[7.4.0.0^2,^7]trideca-1(9),2(7),3,5,10,12-hexaene]: the IC50 was below 10 nM.

As for `COc1nnn(C)c1-c1cnc2c3ccc(-c4c(OC)nnn4C)nc3n([C@H](c3ccccc3F)C3CCOCC3)c2c1` [Example 253, 8-[(S)-(2-Fluorophenyl)(oxan-4-yl)methyl]-5,11-bis(4-methoxy-1-methyl-1H-1,2,3-triazol-5-yl)-3,8,10-triazatricyclo[7.4.0.0^2,^7]trideca-1(13),2(7),3,5,9,11-hexaene], the 50% inhibitory concentration (IC50) was below 10 nM. Consider `Cc1nnn(C)c1-c1cnc2c3ccc(NC(=O)C4CC4)nc3n([C@H](c3ccccc3F)C3CCOCC3)c2c1` [Example 276, N-[5-(Dimethyl-1H-1,2,3-triazol-5-yl)-8-[(S)-(2-fluorophenyl)(oxan-4-yl)methyl]-3,8,10-triazatricyclo[7.4.0.0^2,^7]trideca-1(13),2(7),3,5,9,11-hexaen-11-yl]cyclopropanecarboxamide], for which the concentration for half-maximal inhibition (IC50) was below 10 nM. As for `Cc1nnn(C)c1-c1cnc2c3cnc(-c4c(C)nnn4C)nc3n([C@H](c3ccccc3)C3CCOCC3)c2c1` [Example 155, 5,11-Bis(dimethyl-1H-1,2,3-triazol-5-yl)-8-[(S)-oxan-4-yl(phenyl)methyl]-3,8,10,12-tetraazatricyclo[7.4.0.0^2,^7]trideca-1(9),2(7),3,5,10,12-hexaene], the IC50 is below 10 nM. Take `COc1ncc(S(C)(=O)=O)c2c1c1ncc(-c3c(C)noc3C)cc1n2[C@H](c1ccc(F)cc1)C1CCOCC1` [Example 49, 5-(Dimethyl-1,2-oxazol-4-yl)-8-[(S)-(4-fluorophenyl)(oxan-4-yl)methyl]-10-methanesulfonyl-13-methoxy-3,8,12-triazatricyclo[7.4.0.0^2,^7]trideca-1(13),2(7),3,5,9,11-hexaene]: the half-maximal inhibitory concentration (IC50) was below 1 nM. In the case of `[2H]C([2H])([2H])c1nnn(C)c1-c1cnc2c3cnc(OCC4CC4)cc3n([C@H](c3ccccc3)C3CCOCC3)c2c1` [Example 288, 11-(Cyclopropylmethoxy)-5-[4-(^2H3)methyl-1-methyl-1H-1,2,3-triazol-5-yl]-8-[(S)-oxan-4-yl(phenyl)methyl]-3,8,12-triazatricyclo[7.4.0.0^2,^7]trideca-1(9),2(7),3,5,10,12-hexaene], the 50% inhibitory concentration (IC50) is below 1 nM. On to `Cc1nnn(C)c1-c1cnc2c3ccnc(F)c3n([C@H](c3ccccc3F)C3CCOCC3)c2c1` [Example 29, 5-(Dimethyl-1H-1,2,3-triazol-5-yl)-10-fluoro-8-[(S)-(2-fluorophenyl)(oxan-4-yl)methyl]-3,8,11-triazatricyclo[7.4.0.0^2,^7]trideca-1(13),2(7),3,5,9,11-hexaene], for which the 50% inhibitory concentration (IC50) was below 1 nM.

Turning to `[2H]C([2H])([2H])c1nnn(C)c1-c1cnc2c3c(OC(C)C)ncc(S(C)(=O)=O)c3n([C@H](c3ccccc3)C3CCOCC3)c2c1` [Example 58, 10-Methanesulfonyl-5-[4-(^2H3)methyl-1-methyl-1H-1,2,3-triazol-5-yl]-8-[(S)-oxan-4-yl(phenyl)methyl]-13-(propan-2-yloxy)-3,8,12-triazatricyclo[7.4.0.0^2,^7]trideca-1(13),2(7),3,5,9,11-hexaene], the IC50 is below 1 nM. In the case of `[2H]C([2H])([2H])c1nnn(C)c1-c1cnc2c3c(OC(C)C)nccc3n([C@H](c3ccccc3)C3CCOCC3)c2c1` [Example 131, 5-[4-(^2H3)Methyl-1-methyl-1H-1,2,3-triazol-5-yl]-8-[(S)-oxan-4-yl(phenyl)methyl]-13-(propan-2-yloxy)-3,8,12-triazatricyclo[7.4.0.0^2,^7]trideca-1(13),2(7),3,5,9,11-hexaene], the half-inhibitory concentration (IC50) was below 10 nM. Take `CNCCN(C)c1ccc2c3ncc(-c4c(C)nnn4C)cc3n([C@H](c3ccccc3F)C3CCOCC3)c2n1` [Example 228, 5-(Dimethyl-1H-1,2,3-triazol-5-yl)-8-[(S)-(2-fluorophenyl)(oxan-4-yl)methyl]-N-methyl-N-[2-(methylamino)ethyl]-3,8,10-triazatricyclo[7.4.0.0^2,^7]trideca-1(13),2(7),3,5,9,11-hexaen-11-amine]: the IC50 is below 1 nM.

For the compound `Cc1nnn(C)c1-c1cnc2c3c(NCC4CC4)ncc(Cl)c3n([C@H](c3ccccc3)C3CCOCC3)c2c1` [Example 44, 10-Chloro-N-(cyclopropylmethyl)-5-(dimethyl-1H-1,2,3-triazol-5-yl)-8-[(S)-oxan-4-yl(phenyl)methyl]-3,8,12-triazatricyclo[7.4.0.0^2,^7]trideca-1(13),2(7),3,5,9,11-hexaen-13-amine], the IC50 is below 10 nM.

As to `[2H]C([2H])([2H])c1nnn(C)c1-c1cnc2c3ccc(N4CC(C)S(=O)(=O)C(C)C4)nc3n([C@H](c3ccccc3)C3CCOCC3)c2c1` (stereo partly drawn) [Example 193, 2,6-Dimethyl-4-{5-[4-(^2H3)methyl-1-methyl-1H-1,2,3-triazol-5-yl]-8-[(S)-oxan-4-yl(phenyl)methyl]-3,8,10-triazatricyclo[7.4.0.0^2,^7]trideca-1(9),2(7),3,5,10,12-hexaen-11-yl}-1λ^6,4-thiomorpholine-1,1-dione], the IC50 is below 1 nM.

In the case of `[2H]C([2H])([2H])c1nnn(C)c1-c1cnc2c3c(OC)cncc3n([C@H](c3ccccc3)C3CCOCC3)c2c1` [Example 300, 13-Methoxy-5-[4-(^2H3)methyl-1-methyl-1H-1,2,3-triazol-5-yl]-8-[(S)-oxan-4-yl(phenyl)methyl]-3,8,11-triazatricyclo[7.4.0.0^2,^7]trideca-1(9),2(7),3,5,10,12-hexaene], the IC50 was below 1 nM. `Cc1nnn(C)c1-c1cnc2c3cnc(Cl)cc3n([C@H](c3ccc(F)cc3)C3CCOCC3)c2c1` [Example 322]: the half-inhibitory concentration (IC50) was below 10 nM. Regarding `[2H]C([2H])([2H])c1nnn(C)c1-c1cnc2c3c(NCC(F)(F)F)ncc(S(C)(=O)=O)c3n([C@H](c3ncccc3F)C3CCOCC3)c2c1` [Example 341, 8-[(S)-(3-Fluoropyridin-2-yl)(oxan-4-yl)methyl]-10-methanesulfonyl-5-[4-(^2H3)methyl-1-methyl-1H-1,2,3-triazol-5-yl]-N-(2,2,2-trifluoroethyl)-3,8,12-triazatricyclo[7.4.0.0^2,^7]trideca-1(13),2(7),3,5,9,11-hexaen-13-amine], the IC50 is below 1 nM. With `[2H]C([2H])([2H])c1nnn(C)c1-c1cnc2c3ccc(C4=CCS(=O)(=O)CC4)nc3n([C@H](c3ccccc3)C3CCOCC3)c2c1` [Example 204, 4-{5-[4-(^2H3)Methyl-1-methyl-1H-1,2,3-triazol-5-yl]-8-[(S)-oxan-4-yl(phenyl)methyl]-3,8,10-triazatricyclo[7.4.0.0^2,^7]trideca-1(9),2(7),3,5,10,12-hexaen-11-yl}-3,6-dihydro-2H-1λ^6-thiopyran-1,1-dione] the figure was below 10 nM; with `COc1ncc(S(C)(=O)=O)c2c1c1ncc(-c3c(C)nnn3C)cc1n2[C@H](c1ccccc1)C1CCOCC1` [Example 46, 5-(Dimethyl-1H-1,2,3-triazol-5-yl)-10-methanesulfonyl-13-methoxy-8-[(S)-oxan-4-yl(phenyl)methyl]-3,8,12-triazatricyclo[7.4.0.0^2,^7]trideca-1(13),2(7),3,5,9,11-hexaene], below 10 nM; with `Cc1nnn(C)c1-c1cnc2c3cnc(Cl)cc3n([C@H](c3ccc(Cl)cn3)C3CCOCC3)c2c1` [Example 323], below 10 nM. With `[2H]C([2H])([2H])c1nnn(C)c1-c1cnc2c3c(N(C)C(C)C)ncc(S(C)(=O)=O)c3n([C@H](c3ccccc3)C3CCOCC3)c2c1` [Example 116, 10-Methanesulfonyl-N-methyl-5-[4-(^2H3)methyl-1-methyl-1H-1,2,3-triazol-5-yl]-8-[(S)-oxan-4-yl(phenyl)methyl]-N-(propan-2-yl)-3,8,12-triazatricyclo[7.4.0.0^2,^7]trideca-1(13),2(7),3,5,9,11-hexaen-13-amine], the IC50 was below 1 nM. On to `[2H]C([2H])([2H])c1nnn(C)c1-c1cnc2c3c(OCC)ncc(S(C)(=O)=O)c3n(C(c3ncccc3F)C3CCOCC3)c2c1` (stereo not drawn) [Example 68, 13-Ethoxy-8-[(3-fluoropyridin-2-yl)(oxan-4-yl)methyl]-10-methanesulfonyl-5-[4-(^2H3)methyl-1-methyl-1H-1,2,3-triazol-5-yl]-3,8,12-triazatricyclo[7.4.0.0^2,^7]trideca-1(13),2(7),3,5,9,11-hexaene], for which the IC50 was below 1 nM. On to `[2H]C([2H])([2H])c1nnn(C)c1-c1cnc2c3ccc(N(C)C)nc3n([C@H](c3ccccc3F)C3CCOCC3)c2c1` [Example 238, 8-[(S)-(2-Fluorophenyl)(oxan-4-yl)methyl]-N,N-dimethyl-5-[4-(^2H3)methyl-1-methyl-1H-1,2,3-triazol-5-yl]-3,8,10-triazatricyclo[7.4.0.0^2,^7]trideca-1(13),2(7),3,5,9,11-hexaen-11-amine], for which the IC50 was below 10 nM.
